Experimental data reported in US20170050957A1, “4-AMINO-6-(HETEROCYCLIC)PICOLINATES AND 6-AMINO-2-(HETEROCYCLIC)PYRIMIDINE-4-CARBOXYLATES AND THEIR USE AS HERBICIDES” (Dow AgroSciences LLC, priority 2013, published 2017).
Read-outs that look alike come from different tables or passages of the source.

What was measured:
[1] = test system: Key Broadleaf Weed and Crop Species; test: Post-emergent Test II herbicidal activity (Table 15); type: in vivo; details: post-emergence, 336 h, 14 d; for pest or weed control at 35 g/ha: 35 g ai/ha; for pest or weed control at 70 g/ha: 70 g ai/ha; for pest or weed control at 140 g/ha: 140 g ai/ha
Outline: (§1)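 Visual injury rating (0 = none, 100 = complete kill) taken 14 d after treatment, relative to untreated plants. Compounds in acetone/DMSO with crop oil concentrate and Triton X-155 were track-sprayed at 187 L/ha onto seedlings at the first-second true leaf stage.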

[2] = test system: Key Grass and Sedge Weeds as well as Grass Crops; test: Post-emergent Test II herbicidal activity (Table 16); type: in vivo; details: post-emergence, 336 h, 14 d; for pest or weed control at 35 g/ha: 35 g ai/ha; for pest or weed control at 70 g/ha: 70 g ai/ha; for pest or weed control at 140 g/ha: 140 g ai/ha
Outline: as §1

[3] = Abutilon theophrasti, velvetleaf (Abutilon theophrasti), read-out: Visual Growth Reduction (%) 14 Days After Application, ABUTH
[4] = Amaranthus retroflexus, redroot pigweed (Amaranthus retroflexus), read-out: Visual Growth Reduction (%) 14 Days After Application, AMARE
[5] = Brassica napus, oilseed rape, canola (Brassica napus), read-out: Visual Growth Reduction (%) 14 Days After Application, BRSNN
[6] = Chenopodium album, lambsquarters (Chenopodium album), read-out: Visual Growth Reduction (%) 14 Days After Application, CHEAL
[7] = Euphorbia heterophylla, wild poinsettia (Euphorbia heterophylla), read-out: Visual Growth Reduction (%) 14 Days After Application, EPHHL
[8] = Helianthus annuus, sunflower (Helianthus annuus), read-out: Visual Growth Reduction (%) 14 Days After Application, HELAN
[9] = Cyperus esculentus, yellow nutsedge (Cyperus esculentus), read-out: Visual Growth Reduction (%) 14 Days After Application, CYPES
[10] = Echinochloa crus-galli, barnyardgrass (Echinochloa crus-galli), read-out: Visual Growth Reduction (%) 14 Days After Application, ECHCG
[11] = Oryza sativa, rice (Oryza sativa), read-out: Visual Growth Reduction (%) 14 Days After Application, ORYSA
[12] = Setaria faberi, giant foxtail (Setaria faberi), read-out: Visual Growth Reduction (%) 14 Days After Application, SETFA
[13] = Triticum aestivum, wheat, spring (Triticum aestivum), read-out: Visual Growth Reduction (%) 14 Days After Application, TRZAS
[14] = Zea mays, maize, corn (Zea mays), read-out: Visual Growth Reduction (%) 14 Days After Application, ZEAMX

Row | SMILES | pest or weed control at 35 g/ha [1, 3] | pest or weed control at 70 g/ha [1, 3] | pest or weed control at 140 g/ha [1, 3] | pest or weed control at 70 g/ha [1, 4] | pest or weed control at 140 g/ha [1, 4] | pest or weed control at 35 g/ha [1, 5] | pest or weed control at 70 g/ha [1, 5] | pest or weed control at 140 g/ha [1, 5] | pest or weed control at 35 g/ha [1, 6] | pest or weed control at 70 g/ha [1, 6] | pest or weed control at 140 g/ha [1, 6] | pest or weed control at 35 g/ha [1, 7] | pest or weed control at 70 g/ha [1, 7] | pest or weed control at 140 g/ha [1, 7] | pest or weed control at 35 g/ha [1, 8] | pest or weed control at 70 g/ha [1, 8] | pest or weed control at 140 g/ha [1, 8] | pest or weed control at 35 g/ha [2, 9] | pest or weed control at 70 g/ha [2, 9] | pest or weed control at 140 g/ha [2, 9] | also measured
1 | Cn1ccc2cc(-c3nc(C(=O)O)c(Cl)c(N)c3F)ccc21 [Compound 1.01] | 0 to 29% | 0 to 29% | 30 to 44% | 0 to 29% | 45 to 59% | 0 to 29% | 0 to 29% | 0 to 29% | 0 to 29% | 0 to 29% | 0 to 29% | 95 to 100% | 95 to 100% | 95 to 100% | 0 to 29% | 75 to 84% | 75 to 84% | 0 to 29% | 0 to 29% | 0 to 29% | melting point: 166 to 168 °C; pest or weed control at 35 g/ha [2, 10]: 0 to 29%; pest or weed control at 140 g/ha [2, 10]: 75 to 84%; pest or weed control at 35 g/ha [2, 11]: 0 to 29%; pest or weed control at 70 g/ha [2, 11]: 0 to 29%; pest or weed control at 140 g/ha [2, 11]: 0 to 29%; pest or weed control at 35 g/ha [2, 12]: 0 to 29%; pest or weed control at 70 g/ha [2, 12]: 0 to 29%; pest or weed control at 140 g/ha [2, 12]: 0 to 29%; pest or weed control at 35 g/ha [2, 13]: 0 to 29%; pest or weed control at 70 g/ha [2, 13]: 0 to 29%; pest or weed control at 140 g/ha [2, 13]: 0 to 29%; pest or weed control at 35 g/ha [2, 14]: 0 to 29%; pest or weed control at 70 g/ha [2, 14]: 95 to 100%; pest or weed control at 140 g/ha [2, 14]: 85 to 94%
2 | Nc1cc(-c2cc3[nH]ccc3cc2F)nc(C(=O)O)c1Cl [Compound 1.26] | 0 to 29% | 0 to 29% | 0 to 29% | 85 to 94% | 95 to 100% | 85 to 94% | 95 to 100% | 95 to 100% | 0 to 29% | 30 to 44% | 30 to 44% | 0 to 29% | 30 to 44% | 45 to 59% | 0 to 29% | 0 to 29% | 0 to 29% | 0 to 29% | 0 to 29% | 0 to 29% | pest or weed control at 35 g/ha [1, 4]: 75 to 84%; pest or weed control at 35 g/ha [2, 10]: 0 to 29%; pest or weed control at 70 g/ha [2, 10]: 0 to 29%; pest or weed control at 140 g/ha [2, 10]: 0 to 29%; pest or weed control at 35 g/ha [2, 11]: 0 to 29%; pest or weed control at 70 g/ha [2, 11]: 0 to 29%; pest or weed control at 140 g/ha [2, 11]: 0 to 29%; pest or weed control at 35 g/ha [2, 12]: 0 to 29%; pest or weed control at 70 g/ha [2, 12]: 0 to 29%; pest or weed control at 140 g/ha [2, 12]: 0 to 29%; pest or weed control at 35 g/ha [2, 13]: 0 to 29%; pest or weed control at 70 g/ha [2, 13]: 0 to 29%; pest or weed control at 140 g/ha [2, 13]: 0 to 29%; pest or weed control at 35 g/ha [2, 14]: 0 to 29%; pest or weed control at 70 g/ha [2, 14]: 0 to 29%; pest or weed control at 140 g/ha [2, 14]: 0 to 29%
3 | COC(=O)c1nc(-c2ccc3cc[nH]c3c2F)nc(N)c1OC [Compound 1.34] | 0 to 29% | 0 to 29% | 0 to 29% | 0 to 29% | 30 to 44% | 75 to 84% | 85 to 94% | 95 to 100% | 0 to 29% | 45 to 59% | 60 to 74% | 0 to 29% | 0 to 29% | 60 to 74% | 85 to 94% | 95 to 100% | 95 to 100% | 0 to 29% | 0 to 29% | 0 to 29% | pest or weed control at 35 g/ha [1, 4]: 0 to 29%; pest or weed control at 35 g/ha [2, 10]: 0 to 29%; pest or weed control at 70 g/ha [2, 10]: 0 to 29%; pest or weed control at 140 g/ha [2, 10]: 0 to 29%; pest or weed control at 35 g/ha [2, 11]: 0 to 29%; pest or weed control at 70 g/ha [2, 11]: 0 to 29%; pest or weed control at 140 g/ha [2, 11]: 0 to 29%; pest or weed control at 35 g/ha [2, 12]: 0 to 29%; pest or weed control at 70 g/ha [2, 12]: 0 to 29%; pest or weed control at 140 g/ha [2, 12]: 60 to 74%; pest or weed control at 35 g/ha [2, 13]: 0 to 29%; pest or weed control at 70 g/ha [2, 13]: 0 to 29%; pest or weed control at 140 g/ha [2, 13]: 30 to 44%; pest or weed control at 35 g/ha [2, 14]: 0 to 29%; pest or weed control at 70 g/ha [2, 14]: 0 to 29%; pest or weed control at 140 g/ha [2, 14]: 0 to 29%
